Measurements as given in patent US8530404B2, “Compounds and methods for treatment of cancer” (FibroGen, Inc., priority 2005, dated 2013).
Like-named read-outs stand apart in the source and are kept apart here.

Key:
human A549 lung tumors = experiment: Subcutaneously implanted human A549 lung tumor mouse xenograft (Example 2); assay type: in vivo
BNIP3 gene expression [1] = experiment: BNIP3 gene expression in Kelly neuroblastoma cells; assay type: cell-based; details: Kelly, read-out: fold-increase in BNIP3 mRNA expression
Protocol: (§1) To identify compounds useful in the methods of the present invention, the following studies were performed. The effect of compounds of the present invention on expression of various genes associated with anti-tumor activity (e.g., genes having anti-proliferative activity, genes having pro-apoptotic activity, genes having anti-tumor activity, etc.). In these experiments, the effect of compounds on BNIP3, BNIP3L, NDRG1, CDKN1C, and REDD1/RTP801 gene expression in various types of cultured tumor cells line was examined, including Hep3B cells (human hepatocellular carcinoma), Kelly neuroblastoma cells, and MCF7 cells (human breast cancer)
(§2) The effects of various compounds of the present invention on the expression of genes associated with tumor growth and progression were examined in Kelly neuroblastoma cells as follows. Kelly neuroblastoma cells were grown in RPMI media. For each experiment, Kelly neuroblastoma cells were added to 96-well tissue culture plates (approximately 40,000 cells per well) such that the plated cells reached confluence the following day. On the following day, the cells were washed and the media replaced with RPMI containing 0.5% FBS. Various compounds of the present invention were added to the cultured cells to a final concentration of 20 μM, and the cells cultured for an additional 20-24 hours. DMSO (0.5%) was added to control cell cultures.
(§3) RNA was isolated from the Kelly neuroblastoma cells using a commercial kit and used for the preparation of cDNA. BNIP3, CDKN1C, and 18S RNA levels were measured using commercial kits (18S, Applied Biosystems cat#4319413E); BNIP3, Applied Biosystems cat#HS00969293 MH). RNA levels for BNIP3 and CDKN1C were normalized to that of 18S RNA and is presented as fold-change compared to that observed in DMSO control cultures. Kelly cell NDRG1 and BNIP3L mRNA levels were measured by Affymetrix microarray in a separate study. Cells were harvested after 6 hours incubation with 20 μM test compound or DMSO (0.5%) as control. RNA was isolated and labeled probes were prepared and hybridized to U133 Plus 2.0 Affymetrix microarrays. Changes in gene expression levels are presented as fold change compared to that of control (0.5% DMSO-treated) cultures.

CDKN1C gene expression [2] = experiment: CDKN1C gene expression in MCF7 cells; assay type: cell-based; details: Homo sapiens, MCF7, read-out: fold-increase in CDKN1C mRNA expression
Protocol: as §1
The effects of various compounds of the present invention on the expression of genes associated with tumor growth and progression were examined in MCF7 breast cancer cells as follows. In some experiments, MCF7 (ATCC) cells were plated in 96-well tissue culture dishes (approximately 20,000 cells per well) and cultured in DMEM media supplemented with 10% serum. The following day, the cells were washed and the media was replaced with DMEM containing 0.5% FBS. Various compounds of the present invention were added to the cultured cells to a final concentration of 20 μM, and the cells cultured for an additional 20-24 hours. DMSO (0.5%) was added to control cell cultures. RNA was isolated as described above. Changes in gene expression levels are presented as fold change compared to that of control (0.5% DMSO-treated) cultures.

CDKN1C gene expression [3] = experiment: CDKN1C gene expression in Kelly neuroblastoma cells; assay type: cell-based; details: Kelly, read-out: fold-increase in CDKN1C mRNA expression
Protocol: as §1, §2, §3

BNIP3 gene expression [4] = experiment: In vivo BNIP3 gene expression in Swiss Webster mice (quantitative PCR); details: Mus musculus, iv, 4 h, single 60 mg/kg i.v. dose, four hours after administration, normalized to 18S
Protocol: (§4) The effects of various compounds of the present invention on the expression of genes associated with tumor growth and progression (e.g., expression of genes associated with anti-proliferative effects) were examined in vivo as follows. In these studies, male Swiss Webster mice (25 g) were administered a single intravenous (i.v.) dose of various compounds (60 mg/kg) of the present invention via the tail vein. Four hours after administration of compound, the kidneys and liver were removed and preserved in RNAlater (Ambion). RNA isolation and cDNA synthesis was carried out as follows. Murine kidney tissue was added to TRIzol (Invitrogen) and homogenized using a 5-mm stainless steel bead for 4 minutes at 25 Hz in a Mixer Mill 300 (Qiagen). Homogenates were extracted with chloroform according to the manufacturer's instructions and aqueous supernatants were isolated. The aqueous supernatants were combined with equal volumes of 70% ethanol and then loaded onto RNeasy Mini spin columns (Qiagen). RNA was isolated according to the manufacturer's instructions.
(§5) Synthesis of cDNA from the isolated total RNA was carried out using Omniscript reverse transcriptase (Qiagen) and random primers according to the manufacturer's instructions. Measurement of gene expression levels in compound-treated animals and in vehicle-treated control animals was performed by quantitative PCR using TaqMan Universal PCR Master Mix (Applied Biosystems) and TaqMan Assay-on-Demand assays (Applied Biosystems) in a Prism 7000 system instrument (Applied Biosystems), according to manufacturer's instructions. The assays used were as follows: 18S ribosomal RNA, Hs99999901_s1; BNIP3, Mm00833810_g1; BNIP3L, Mm00786306_s1; NDRG1, Mm00440447_m1. Each PCR amplification reaction included a standard curve and a water blank. Data for gene expression levels for BNIP3, BNIP3L, and NDRG1 were normalized to that of 18S ribosomal RNA within each sample. Data is presented as fold change in specific mRNA levels relative to that of non-treated control animals.

NDRG1 gene expression = experiment: In vivo NDRG1 gene expression in Swiss Webster mice (quantitative PCR); details: Mus musculus, iv, 4 h, read-out: fold change in NDRG1 mRNA level
Protocol: as §4, §5

[5] = read-out: fold change in BNIP3 mRNA level, kidney
[6] = read-out: fold change in BNIP3 mRNA level, liver

Structure (SMILES) | A549 mean tumor volume (human A549 lung tumors; week 5, 20 mg/kg PO) | A549 mean tumor volume (human A549 lung tumors; week 6, 20 mg/kg PO) | A549 mean tumor volume (human A549 lung tumors; week 7, 20 mg/kg PO) | A549 mean tumor volume (human A549 lung tumors; week 8, 20 mg/kg PO) | A549 mean tumor volume (human A549 lung tumors; week 9, 20 mg/kg PO) | fold induction at 20 µM (BNIP3 gene expression [1]) | fold induction at 20 µM (CDKN1C gene expression [2]) | fold induction at 20 µM (CDKN1C gene expression [3]) | fold induction at 60 mg/kg (BNIP3 gene expression [4]; [5]) | fold induction at 60 mg/kg (NDRG1 gene expression) | fold induction at 60 mg/kg (BNIP3 gene expression [4]; [6]) | other results
O=C(O)CNC(=O)c1nc(Cl)c2ccccc2c1O [Compound A, [(1-Chloro-4-hydroxy-isoquinoline-3-carbonyl)-amino]-acetic acid] | 375 mm^3 | 428 mm^3 | 523 mm^3 | 547 mm^3 | 615 mm^3 | – | – | – | – | – | – | tumor weight at necropsy, Mean (human A549 lung tumors; 60 mg/kg PO): 0.81 g; A549 mean tumor volume (human A549 lung tumors; week 0, 60 mg/kg PO): 105 mm^3; A549 mean tumor volume (human A549 lung tumors; week 1, 60 mg/kg PO): 133 mm^3; A549 mean tumor volume (human A549 lung tumors; week 2, 60 mg/kg PO): 175 mm^3; A549 mean tumor volume (human A549 lung tumors; week 3, 60 mg/kg PO): 234 mm^3; A549 mean tumor volume (human A549 lung tumors; week 4, 60 mg/kg PO): 324 mm^3; A549 mean tumor volume (human A549 lung tumors; week 5, 60 mg/kg PO): 348 mm^3; A549 mean tumor volume (human A549 lung tumors; week 6, 60 mg/kg PO): 425 mm^3; A549 mean tumor volume (human A549 lung tumors; week 7, 60 mg/kg PO): 514 mm^3; A549 mean tumor volume (human A549 lung tumors; week 8, 60 mg/kg PO): 538 mm^3; A549 mean tumor volume (human A549 lung tumors; week 9, 60 mg/kg PO): 597 mm^3
C[C@H](NC(=O)c1ncc2cc(Oc3ccccc3)ccc2c1O)C(=O)O [Compound B, (S)-2-[(4-Hydroxy-7-phenoxy-isoquinoline-3-carbonyl)-amino]-propionic acid] | – | – | – | – | – | 17.2 | 0.5 | 91 | 2.1 | 0.9 | – | –
COc1ccc(Oc2ccc3c(O)c(C(=O)NCC(=O)O)ncc3c2)cc1 [Compound C, {[4-Hydroxy-7-(4-methoxy-phenoxy)-isoquinoline-3-carbonyl]-amino}-acetic acid] | 246 mm^3 | 304 mm^3 | 341 mm^3 | 402 mm^3 | 429 mm^3 | 2.6 | 0.6 | 49 | 1.5 | 1 | 3.5 | –
Cc1nc(C(=O)NCC(=O)O)c(O)c2ccc(Oc3ccccc3)cc12 [Compound D, [(4-Hydroxy-1-methyl-7-phenoxy-isoquinoline-3-carbonyl)-amino]-acetic acid] | 272 mm^3 | 304 mm^3 | 373 mm^3 | 411 mm^3 | 466 mm^3 | 21.9 | – | 382 | 5.8 | 3.6 | 1.5 | tumor weight at necropsy, Mean (human A549 lung tumors; 6 mg/kg PO): 0.51 g; A549 mean tumor volume (human A549 lung tumors; week 0, 6 mg/kg PO): 109 mm^3; A549 mean tumor volume (human A549 lung tumors; week 1, 6 mg/kg PO): 137 mm^3; A549 mean tumor volume (human A549 lung tumors; week 2, 6 mg/kg PO): 178 mm^3; A549 mean tumor volume (human A549 lung tumors; week 3, 6 mg/kg PO): 209 mm^3; A549 mean tumor volume (human A549 lung tumors; week 4, 6 mg/kg PO): 263 mm^3; A549 mean tumor volume (human A549 lung tumors; week 5, 6 mg/kg PO): 292 mm^3; A549 mean tumor volume (human A549 lung tumors; week 6, 6 mg/kg PO): 339 mm^3; A549 mean tumor volume (human A549 lung tumors; week 7, 6 mg/kg PO): 375 mm^3; A549 mean tumor volume (human A549 lung tumors; week 8, 6 mg/kg PO): 431 mm^3; A549 mean tumor volume (human A549 lung tumors; week 9, 6 mg/kg PO): 476 mm^3
O=C(O)CNC(=O)c1ncc2cc(Oc3ccc(F)cc3)ccc2c1O [Compound E, {[7-(4-fluoro-phenoxy)-4-hydroxy-isoquinoline-3-carbonyl]-amino}-acetic acid] | – | – | – | – | – | 31.8 | 0.4 | 184 | 2.1 | 1.8 | 1.8 | –
